The text below walks through data of patent US20150005242A1, “AROMATIC-CATIONIC PEPTIDES AND USES OF SAME” (Institut de Recherches Cliniques de Montreal, priority 2010, published 2015).

Data set [1] concerns the target cytochrome c (cyt c) (Homo sapiens, UniProt P99999). Briefly: kinetics of cyt c reduction monitored by absorbance spectroscopy (A550). The class given is biochemical. The settings on record: for cyt c reduction by peptide alone: peptide alone at 100 μM, no reducing agent. The method, then:
FIG. 1 is a chart showing that the peptide D-Arg-Dmt-Lys-Phe-NH2 increases the rate of cytochrome c (cyt c) reduction. Reduced cyt c was measured by absorbance at 550 nm. […] The peptide alone at 100 μM had no effect.
We hypothesize that the distribution of aromatic cationic peptides among the protein complexes in the IMM allows it to serve as additional relay stations to facilitate ET. In support of this hypothesis, we have used the kinetics of cyt c reduction (monitored by absorbance spectroscopy) as a simple model system to determine if the peptide D-Arg-2′6′-Dmt-Lys-Phe-NH2 can facilitate ET.

The subject of data set [2] is renal ischemia-reperfusion (IR) injury. Put plainly: restoration of mitochondrial respiration and ATP synthesis following renal ischemia-reperfusion (IR) injury. The class given is in vivo. To be noted: rats, 2.0 mg/kg sc 30 min before ischemia and at reperfusion; for state 3 respiration (oxygen consumption) in isolated renal mitochondria: 45 min bilateral renal artery occlusion, 20 min reperfusion, p<0.01; for ATP content (ATP synthesis) in rat kidney: 45 min ischemia, 1 h after IR injury, P<0.05. The procedure:
FIG. 2 is a chart showing treatment with D-Arg-Dmt-Lys-Phe-NH2 increased state 3 respiration in isolated renal mitochondria after 20 min IR injury (p<0.01).
FIG. 3 is a chart showing that treatment with D-Arg-Dmt-Lys-Phe-NH2 increased ATP content in rat kidney at 1 h after IR injury (P<0.05).
Preliminary studies further support our hypothesis that D-Arg-2′6′-Dmt-Lys-Phe-NH2 can facilitate ET and improve ATP synthesis in vivo. We have examined the effect of this peptide on restoration of mitochondrial respiration and ATP synthesis following ischemia-reperfusion (IR) injury in rats. Rats were subjected to bilateral occlusion of renal artery for 45 min followed by 20 min or 1 h reperfusion. Rats received saline or peptide (2.0 mg/kg sc) 30 min before ischemia and again at the time of reperfusion (n=4-5 in each group).

Data set [3] concerns mitochondrial ROS. Put plainly: mitochondrial ROS and mitochondrial function in cellular and animal studies. The class given is cell-based. The text has this: These examples identify “druggable” chemical compounds that can reduce mitochondrial oxidative stress and protect mitochondrial function. As mitochondria are the major source of intracellular reactive oxygen species (ROS), the antioxidant must be delivered to mitochondria in order limit oxidative damage to mitochondrial DNA, proteins of the electron transport chain (ETC), and the mitochondrial lipid membranes. We discovered a family of synthetic aromatic-cationic tetrapeptides that selectively target and concentrate in the inner mitochondrial membrane (IMM). Some of these peptides contain redox-active amino acids that can undergo one-electron oxidation and behave as mitochondria-targeted antioxidants. […] Although radical scavenging is the most commonly used approach to reduce oxidative stress, there are other potential mechanisms that can be used, including facilitation of electron transfer to reduce electron leak and improved mitochondrial reduction potential.

Data set [4] is described as follows: neutralization of reactive species and inhibition of lipid peroxidation. The class given is biochemical.
In data set [5] the test system is animal models of ischemia-reperfusion injury, neurodegenerative diseases, and metabolic syndrome. Briefly: animal models of ischemia-reperfusion injury, neurodegenerative diseases, and metabolic syndrome. The data set is classed as in vivo.
The mark [6] stands for this setting: listed as D-Arg-2′6′-Dmt-Lys-Phe-NH2, 2 mg/kg.

Sequence of cytochrome c (cyt c) (P99999 whole entry, species assumed): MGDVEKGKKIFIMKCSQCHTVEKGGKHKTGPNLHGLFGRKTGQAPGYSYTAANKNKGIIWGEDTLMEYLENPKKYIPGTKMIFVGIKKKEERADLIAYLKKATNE

For the substance “D-Arg-2′6′-Dmt-Lys-Phe-NH2 [D-Arg-Dmt-Lys-Phe-NH2]”, the “rate of NAC-induced cyt c reduction” value in data set [1] (40 μM NAC as reducing agent, absorbance at 550 nm) was “dose-dependently increased”. In addition, the results for the “cyt c reduction by peptide alone” value in data set [1] and in data set [1] (listed as D-Arg-2′6′-Dmt-Lys-Phe-NH2) were “had no effect” and “did not reduce cyt c”, respectively. In addition, the “state 3 respiration (oxygen consumption) in isolated renal mitochondria” value in data set [2] (2 mg/kg) was “increased”; in data set [2] (setting [6]), “improved”. In addition, the “ATP content (ATP synthesis) in rat kidney” value in data set [2] (2 mg/kg) is “increased”; in data set [2] (setting [6]), “improved”.
For the substance D-Arg-2′6′-Dmt-Tyr-Lys-Phe-NH2, the oral bioavailability entry is “limited by degradation in intestinal fluids”. Moreover, in data set [3] (cellular and animal studies), the “mitochondrial ROS” value is recorded as “reduces” and the mitochondrial function entry is “protect”. The “protection against mitochondrial oxidative stress” value in data set [3] (compared with mitochondrial catalase overexpression) is given as “comparable to that observed with mitochondrial catalase overexpression”. Also, in data set [4], the lipid peroxidation result was “inhibit”, the “neutralization of H2O2” value is “can neutralize”, the “neutralization of hydroxyl radical” value is recorded as “can neutralize” and the neutralization of peroxynitrite result is listed as “can neutralize”. For the same substance, the “efficacy in animal models” value in data set [5] is listed as “remarkable efficacy”.
